Reference: patent US12022844B2, “Nutritional composition, food/drink composition using nutritional composition, and modified milk powder using nutritional composition” (priority 2018, dated 2024)

Legend:
[1] = test system: Lactobacillus paracasei ATCC 25302; assay: Mix-culturing with Bifidobacterium bifidum by HMO as sugar source, quantitative PCR; type: cell-based; settings: for Proliferation rate (number of bacteria after mix-culturing for 8 h/number of bacteria after single bacterial culturing): ATCC 25302^7 mix-cultured with Bifidobacterium bifidum (NITE BP-02429), sugar source 2%, Table 8; for Proliferation ratio of Lactobacillus paracasei ATCC 25302^T (mix-cultured bacteria after 8 h/single bacterial culturing 8 h): Table 12; for number of proliferating bacteria of Lactobacillus paracasei ATCC 25302^T in combination with seven strains of Bifidobacterium bifidum compared to single bacterium culture: summary of Table 12
Description: (§1) A10% solution of glucose (manufactured by Nakarai Tesque Inc.), and 2′-FL ((≥95%) Funakoshi, available from sigma), and LNnT (manufactured by ELICITYL) as examples of HMOs was prepared with ion exchanged water, and was subjected to sterile filtration using Millex-GV (SLGV033RS).
(§2) Lactobacilli MRS Broth (BD) (0.05% L-Cysteine Hydrochloride for Bacteria of the genus Bifidobacterium) was added to strains of Table 1 below (bacteria belonging to Bifidobacterium bifidum) and Table 2 below. After a sterilization treatment, 3% of the bacterial solution was inoculated, and anaerobically cultured (pre-pre cultured) at 37° C. for 16 h.
(§3) The following day, 1% glucose was added to a modified BL agar medium (“Studies on Bifidobacteria” by Tomotari Mitsuoka, p. 306, Japan Bifidus Foundation, issued in 1994) noted in Table 3, for preparation. After a sterilization treatment, 3% of the pre-pre cultured bacterial solution was inoculated, and anaerobically pre-cultured (pre-cultured) at 37° C. for 12 h.
(§4) The pre-cultured bacterial solution was collected and washed once with a sterile physiological saline solution. Then, mass-up was performed to an equal volume with the modified BL agar medium (“Studies on Bifidobacteria” by Tomotari Mitsuoka, p. 306, Japan Bifidus Foundation, issued in 1994) noted in Table 3 to prepare a suspended bacterial solution.
(§5) The modified BL agar medium (“Studies on Bifidobacteria” by Tomotari Mitsuoka, p. 306, Japan Bifidus Foundation, issued in 1994) noted in Table 3 was prepared at a capacity of 60%, and was subjected to an autoclave sterilization treatment. Then, 40% of each sugar solution prepared in (1) was aseptically added so as to prepare a medium with a sugar concentration of 4%.
(§6) The medium prepared in the above (3) was dispensed at a capacity that is half the capacity for aseptic culturing in a 96-well plate, and each of the bacterial solutions of strains of bacteria belonging to Bifidobacterium bifidum in Table 1 and probiotics having a low ability to assimilate human milk oligosaccharides in Table 2, which was prepared in the above (2), was dispensed at a remaining […] capacity into the medium prepared in the above (3) such that the bacterial solution had 12%. Then, a final sugar concentration was set to 2%. The plate into which the bacterial solution was dispensed was anaerobically cultured at 37° C. for 8 h.
(§7) OD650 was measured from each well in the plates in the above (4) and the above (5) before (0 h) culturing and after (8 h) culturing, by MICROPLATE READER SH-9000 (manufactured by CORONA ELECTRIC). After turbidity measurement, microbial cells were collected, and DNA extraction was performed. After the DNA extraction, the number of proliferating bacteria of Bifidobacteria/lactobacilli was analyzed by using the bacterial species-specific primer noted in Table 4, by a quantitative PCR method (see “Structural analysis of intestinal flora”—analysis of bacterial flora in human feces using quantitative PCR—by Kouichi Watanabe, Enterobacteriological journal, 20:35-42, 2006).
(§8) It was decided to culture Bifidobacterium bifidum (NITE BP-02429) in which availability of 2′-FL or LNnT was found as described above, in combination with strains in Table 2, which cannot use 2′-FL or LNnT. Bifidobacterium bifidum (NITE BP-02429) and the strains in Table 2, which cannot use 2′-FL or LNnT, were mix-cultured by 2′-FL or LNnT as a sugar source, and after culturing for 8 h, the proliferation rate of the number of bacteria of each strain (proliferation rate=the number of bacteria after mix-culturing for 8 h/the number of bacteria after single bacterial culturing) was measured by a quantitative PCR method using each strain-specific oligonucleotide primer noted in Table 4, for the strain in Table 2.
Seven strains of Bifidobacterium bifidum in Table 1 and Lactobacillus paracasei ATCC 25302^T which cannot use 2′-FL or LNnT were mix-cultured by 2′-FL or LNnT as a sugar source. […]

[2] = test system: Lactobacillus acidophhilus ATCC4356; assay: as above; type: cell-based, Lactobacillus acidophilus; settings: ATCC 4356^T mix-cultured with Bifidobacterium bifidum (NITE BP-02429), sugar source 2%, Table 8
Description: as §1
as §2, with “h. […]” for “h.”
OD650 was measured from each well in the plates in the above (4) and the above (5) before (0 h) culturing and after (8 h) culturing, by MICROPLATE READER SH-9000 (manufactured by CORONA ELECTRIC). […] After the DNA extraction, the number of proliferating bacteria of Bifidobacteria/lactobacilli was analyzed by using the bacterial species-specific primer noted in Table 4, by a quantitative PCR method (see “Structural analysis of intestinal flora”—analysis of bacterial flora in human feces using quantitative PCR—by Kouichi Watanabe, Enterobacteriological journal, 20:35-42, 2006). […]

[3] = test system: Bifidobacterium bifidum NITE BP-02429; assay: Single bacterial culturing with HMO as sugar source, OD650; type: cell-based; settings: 8 h
Description: as §1, §2, §3, §4
The modified BL agar medium (“Studies on Bifidobacteria” by Tomotari Mitsuoka, p. 306, Japan Bifidus Foundation, issued in 1994) noted in Table 3 was prepared at a capacity of 60%, and was subjected to an autoclave sterilization treatment. Then, 40% of each sugar solution prepared in (1) was aseptically added so as to prepare a medium with a sugar concentration of 4%. […]
OD650 was measured from each well in the plates in the above (4) and the above (5) before (0 h) culturing and after (8 h) culturing, by MICROPLATE READER SH-9000 (manufactured by CORONA ELECTRIC). […] After the DNA extraction, the number of proliferating bacteria of Bifidobacteria/lactobacilli was analyzed by using the bacterial species-specific primer noted in Table 4, by a quantitative PCR method (see “Structural analysis of intestinal flora”—analysis of bacterial flora in human feces using quantitative PCR—by Kouichi Watanabe, Enterobacteriological journal, 20:35-42, 2006).
Regarding bacteria belonging to Bifidobacterium bifidum in Table 1, each strain was cultured as a single bacterium by 2′-FL or LNnT (HMOs) as a sugar source, and OD650 was measured. […]
Regarding strains in Table 2, each strain was cultured as a single bacterium by 2′-FL or LNnT (HMOs) as a sugar source, and OD650 was measured. […]

[4] = test system: Bifidobacterium longum subspecies longum BB536; assay: Mix-culturing with Bifidobacterium bifidum by HMO as sugar source, quantitative PCR; type: cell-based; settings: for Proliferation rate (number of bacteria after mix-culturing for 8 h/number of bacteria after single bacterial culturing): BB536 mix-cultured with Bifidobacterium bifidum (NITE BP-02429), sugar source 2%, Table 8; for Proliferation rate of BB536 (mix-cultured bacteria after 8 h/single bacterial culturing 8 h): Table 9; for proliferation of BB536 through mix-culturing with bacteria belonging to Bifidobacterium bifidum: summary of Table 9
Description: as §1, §2, §3, §4, §5, §6, §7, §8
Seven strains of Bifidobacterium bifidum in Table 1 and Bifidobacterium longum subspecies longum BB536 which cannot use 2′-FL or LNnT were mix-cultured by 2′-FL or LNnT as a sugar source. […]

[5] = test system: Lactobacillus paracasei ATCC25302; assay: Single bacterial culturing with HMO as sugar source, OD650; type: cell-based; settings: ATCC 25302^T, sugar source 2%, 8 h
Description: as §1, §2, §3, §4, §5
(§9) The medium prepared in the above (3) was dispensed at a capacity that is half the capacity for culturing in a 96-well plate, and the bacterial solution prepared in the above (2) was dispensed at a remaining half capacity such that the bacterial solution had 6%. Then, a final sugar concentration was set to 2%. The plate into which the bacterial solution was dispensed was anaerobically cultured at 37° C. for 8 h.
as §7
(§10) Regarding strains in Table 2, each strain was cultured as a single bacterium by 2′-FL or LNnT (HMOs) as a sugar source, and OD650 was measured. The results for 2′-FL are noted in Table 6 below, and the results for LNnT are noted in Table 7 below.

[6] = test system: strains in Table 2 except for Bifidobacterium infantis; assay: Availability of HMOs by probiotics (single culturing, summary); type: cell-based; settings: single bacterial culturing, 8 h; summary of Tables 6 and 7
Description: as §9, §7, §10

[7] = test system: Lactobacillus plantarum ATCC14917; assay: Mix-culturing with Bifidobacterium bifidum by HMO as sugar source, quantitative PCR; type: cell-based; settings: ATCC 14917^T mix-cultured with Bifidobacterium bifidum (NITE BP-02429), sugar source 2%, Table 8
Description: as §1, §2, §3, §4, §5, §6, §7, §8

[8] = mix-cultured with Bifidobacterium bifidum ATCC 29521^T
[9] = mix-cultured with Bifidobacterium bifidum NITE BP-1252
[10] = mix-cultured with Bifidobacterium bifidum NITE BP-02429
[11] = mix-cultured with Bifidobacterium bifidum NITE BP-02431
[12] = mix-cultured with Bifidobacterium bifidum NITE BP-02432
[13] = mix-cultured with Bifidobacterium bifidum NITE BP-02433
[14] = mix-cultured with Bifidobacterium bifidum NITE P-02648
[15] = NITE BP-02429, sugar source 2%, anaerobic 37° C., Table 5

Compound | Proliferation rate (number of bacteria after mix-culturing for 8 h/number of bacteria after single bacterial culturing) [1] | Proliferation ratio of Lactobacillus paracasei ATCC 25302^T (mix-cultured bacteria after 8 h/single bacterial culturing 8 h) [1, 8] | Proliferation ratio of Lactobacillus paracasei ATCC 25302^T (mix-cultured bacteria after 8 h/single bacterial culturing 8 h) [1, 9] | Proliferation ratio of Lactobacillus paracasei ATCC 25302^T (mix-cultured bacteria after 8 h/single bacterial culturing 8 h) [1, 10] | Proliferation ratio of Lactobacillus paracasei ATCC 25302^T (mix-cultured bacteria after 8 h/single bacterial culturing 8 h) [1, 11] | Proliferation ratio of Lactobacillus paracasei ATCC 25302^T (mix-cultured bacteria after 8 h/single bacterial culturing 8 h) [1, 12] | Proliferation ratio of Lactobacillus paracasei ATCC 25302^T (mix-cultured bacteria after 8 h/single bacterial culturing 8 h) [1, 13] | Proliferation ratio of Lactobacillus paracasei ATCC 25302^T (mix-cultured bacteria after 8 h/single bacterial culturing 8 h) [1, 14] | number of proliferating bacteria of Lactobacillus paracasei ATCC 25302^T in combination with seven strains of Bifidobacterium bifidum compared to single bacterium culture [1] | Proliferation rate (number of bacteria after mix-culturing for 8 h/number of bacteria after single bacterial culturing) [2] | OD650 increase value [3, 15] | Proliferation rate (number of bacteria after mix-culturing for 8 h/number of bacteria after single bacterial culturing) [4] | Proliferation rate of BB536 (mix-cultured bacteria after 8 h/single bacterial culturing 8 h) [4, 8] | Proliferation rate of BB536 (mix-cultured bacteria after 8 h/single bacterial culturing 8 h) [4, 9] | Proliferation rate of BB536 (mix-cultured bacteria after 8 h/single bacterial culturing 8 h) [4, 10] | Proliferation rate of BB536 (mix-cultured bacteria after 8 h/single bacterial culturing 8 h) [4, 11] | Proliferation rate of BB536 (mix-cultured bacteria after 8 h/single bacterial culturing 8 h) [4, 12] | Proliferation rate of BB536 (mix-cultured bacteria after 8 h/single bacterial culturing 8 h) [4, 13] | Proliferation rate of BB536 (mix-cultured bacteria after 8 h/single bacterial culturing 8 h) [4, 14] | proliferation of BB536 through mix-culturing with bacteria belonging to Bifidobacterium bifidum [4] | other results
2′-fucosyllactose [2′-FL] | 6.92 | 2.28 | 1.98 | 4.21 | 3.25 | 2.01 | 3.23 | 4.23 | promoted | 3.54 | 0.167 | 4.30 | 1.35 | 3.17 | 4.13 | 6.33 | 3.16 | 5.90 | 9.97 | proliferates | OD650 increase value ([3]; NITE BP-02429(PC), sugar source 2%, Table 6): 0.135; OD650 increase value ([5]; Table 6): −0.011; assimilability by strains in Table 2 except for Bifidobacterium infantis [6]: had no assimilability in 2′-FL or LNnT (HMOs), or a low assimilability; Proliferation rate (number of bacteria after mix-culturing for 8 h/number of bacteria after single bacterial culturing) [7]: 1.76
CC(=O)N[C@H]1[C@H](O[C@H]2[C@@H](O)[C@@H](CO)O[C@@H](O[C@H]3[C@H](O)[C@@H](O)C(O)O[C@@H]3CO)[C@@H]2O)O[C@H](CO)[C@@H](O[C@@H]2O[C@H](CO)[C@H](O)[C@H](O)[C@H]2O)[C@@H]1O (mixture of isomers) [LNnT, lacto-N-neotetraose] | 4.23 | 4.26 | 9.18 | 8.04 | 10.10 | 8.76 | 8.85 | 14.78 | promoted | 3.77 | 0.608 | 2.13 | 1.07 | 1.64 | 3.57 | 3.02 | 1.51 | 3.08 | 4.95 | proliferates | OD650 increase value ([3]; NITE BP-02429 (PC: positive control), sugar source 2%, Table 7): 0.608; OD650 increase value ([5]; Table 7): 0.052; assimilability by strains in Table 2 except for Bifidobacterium infantis [6]: had no assimilability in 2′-FL or LNnT (HMOs), or a low assimilability; Proliferation rate (number of bacteria after mix-culturing for 8 h/number of bacteria after single bacterial culturing) [7]: 2.58
